The source of these data is publication PMC10278368 (The Pediatric infectious disease journal, 2011).

Data set [1] deals with multidrug resistant Klebsiella pneumoniae. Conditions: blood culture isolate of the patient; for MIC: method not stated.
For another data set, the system named is Acinetobacter baumannii. As to the kind of experiment: MIC of the endotracheal aspirate isolate. In kind it is cell-based. The conditions noted are these: isolate from endotracheal aspirate of the patient; reported as susceptible.
The format of data set [2] is in vivo, human.
Data set [3] concerns multidrug resistant Klebsiella pneumoniae. As to the kind of experiment: microbe, parasite or virus in culture.
For data set [4] the test system is unchanged. The data set is classed as in vivo, human. Conditions: 1.5 mg/kg/dose every 12 hours IV in combination with amikacin once daily; persistently febrile; infant, n = 1.

Converted amounts (≈) assume the structure as drawn. Structures can show the parent of a compound that is named as a salt. Where two headings read alike, the source gives them in different places. Bridge positions count the residues as written; N and C are the ends. Square brackets hold non-standard residues; d marks the D form. Peptide text beside a SMILES is read from it. * marks the point of attachment. X1 = CC[C@H](C)CCCCC(=O)*; Dab = NCC[C@H](N)C(=O)O A value given as a limit tells only on which side of the number the result lay.

On to piperacillin/tazobactam, for which the MIC is more than 128 µg/mL in data set [1] and less than 4 µg/mL in the data set on Acinetobacter baumannii. Regarding `CC[C@H](C)CCCCC(=O)N[C@@H](CCN)C(=O)N[C@H](C(=O)N[C@@H](CCN)C(=O)N[C@H]1CCNC(=O)[C@H]([C@@H](C)O)NC(=O)[C@H](CCN)NC(=O)[C@H](CCN)NC(=O)[C@H](CC(C)C)NC(=O)[C@@H](Cc2ccccc2)NC(=O)[C@H](CCN)NC1=O)[C@@H](C)O` [Polymyxin B1] (X1-[Dab]T[Dab][Dab][Dab][dF]L[Dab][Dab]T; lactam 4-C), in data set [2] (human, in vivo, iv), the clearance was 5.07 mL/min and the half-life was 3.07 h. For the same molecule, the “elimination half-life (rounded)” value in data set [2] (infant, n = 1, IV polymyxin B, steady-state serum, LC-MS) is 3.1 h. With ampicillin/sulbactam, in data set [1], the MIC is more than 32 µg/mL.

The molecule `CO/N=C(\C(=O)N[C@@H]1C(=O)N2C(C(=O)O)=C(CSc3nc(=O)c(=O)[nH]n3C)CS[C@H]12)c1csc(N)n1` [ceftriaxone] yielded an MIC in data set [3] of 16 µg/mL (≈ 28.9 µM). Same read-out and setting: the figure for `CC(C)(O/N=C(\C(=O)N[C@@H]1C(=O)N2C(C(=O)[O-])=C(C[n+]3ccccc3)CS[C@H]12)c1csc(N)n1)C(=O)O` [ceftazidime] is 16 µg/mL (≈ 29.3 µM).

`C[C@@H](O)[C@H]1C(=O)N2C(C(=O)O)=C(S[C@@H]3CN[C@H](C(=O)N(C)C)C3)[C@H](C)[C@H]12` [meropenem]: the MIC in data set [3] (read-out: MIC by E-test) was found to be 32 µg/mL (≈ 83.4 µM). Consider `C[C@H]1[C@H](NC(=O)/C(=N\OC(C)(C)C(=O)O)c2csc(N)n2)C(=O)N1S(=O)(=O)O` [aztreonam], for which the MIC in data set [3] was more than 64 µg/mL. With `CC[C@H](C)CCCCC(=O)N[C@@H](CCN)C(=O)N[C@H](C(=O)N[C@@H](CCN)C(=O)N[C@H]1CCNC(=O)[C@H]([C@@H](C)O)NC(=O)[C@H](CCN)NC(=O)[C@H](CCN)NC(=O)[C@H](CC(C)C)NC(=O)[C@@H](Cc2ccccc2)NC(=O)[C@H](CCN)NC1=O)[C@@H](C)O` [polymyxin B, Polymyxin B sulfate] (X1-[Dab]T[Dab][Dab][Dab][dF]L[Dab][Dab]T; lactam 4-C (inferred); N-terminus assumed), the “MIC by E-test” value in data set [1] (E-test) was determined as 1.5 µg/mL. Further, the “days of persistently positive blood cultures under treatment” value in data set [4] is reported as 3 days. As to `NCC[C@H](O)C(=O)N[C@@H]1C[C@H](N)[C@@H](O[C@H]2O[C@H](CN)[C@@H](O)[C@H](O)[C@H]2O)[C@H](O)[C@H]1O[C@H]1O[C@H](CO)[C@@H](O)[C@H](N)[C@H]1O` [amikacin], in data set [3], the MIC was less than 2 µg/mL. Molecule `CC[C@H](C)CCCCC(=O)N[C@@H](CCN)C(=O)N[C@H](C(=O)N[C@@H](CCN)C(=O)N[C@H]1CCNC(=O)[C@H]([C@@H](C)O)NC(=O)[C@H](CCN)NC(=O)[C@H](CCN)NC(=O)[C@H]([C@@H](C)CC)NC(=O)[C@@H](Cc2ccccc2)NC(=O)[C@H](CCN)NC1=O)[C@@H](C)O` [Isoleucine Polymyxin B1] (X1-[Dab]T[Dab][Dab][Dab][dF]I[Dab][Dab]T; lactam 4-C) gave a clearance in data set [2] (human, in vivo, iv) of 4.02 mL/min.
